# Laboratory results as given in PubChem BioAssay (NCI).
#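 How tested: cells in 96-well plates exposed to compound for 48 hours at five concentrations. Here, GI50 denotes the concentration required for 50% inhibition of growth. TGI is the concentration that stops growth completely.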
# Tests used:
# Experiment in all cases: NCI tumour cell line growth inhibition, 48 h
# [1] = tested on: M14 melanoma
# [2] = tested on: CCRF-CEM leukemia
# [3] = tested on: K-562 leukemia
# [4] = tested on: OVCAR-5 ovarian
# [5] = tested on: HT29 colon
# [6] = tested on: SK-MEL-2 melanoma
# [7] = tested on: IGROV1 ovarian
# [8] = tested on: RPMI-8226 leukemia
# [9] = tested on: MOLT-4 leukemia
# [10] = tested on: DU-145 prostate
# [11] = tested on: HCT-116 colon
# [12] = tested on: SR leukemia
# [13] = tested on: OVCAR-3 ovarian
# [14] = tested on: MDA-MB-435
# [15] = tested on: NCI-H460 lung
# [16] = tested on: NCI/ADR-RES ovarian
# [17] = tested on: 786-0 renal
# [18] = tested on: SNB-19 CNS
# [19] = tested on: KM12 colon
# [20] = tested on: OVCAR-8 ovarian
# [21] = tested on: TK-10 renal
# [22] = tested on: NCI-H522 lung
# [23] = tested on: HOP-92 NSCLC
# [24] = tested on: SK-OV-3 ovarian
# [25] = tested on: HCC-2998 colon
# [26] = tested on: NCI-H226 lung
# [27] = tested on: T-47D breast
smiles,measurement,setting,value
COc1ccc2nc(NC(=O)COc3cc(/C=C\c4cc(OC)c(OC)c(OC)c4)ccc3OC)sc2c1,GI50,[1],4.33 µM
same,TGI,[1],> 100 µM
same,GI50,[2],3.87 µM
same,TGI,[2],> 100 µM
same,GI50,[3],3.6 µM
same,TGI,[3],> 100 µM
same,GI50,[4],5.89 µM
same,TGI,[4],> 100 µM
same,GI50,[5],3.34 µM
same,TGI,[5],> 100 µM
same,GI50,[6],4.07 µM
same,TGI,[6],> 100 µM
same,GI50,[7],7 µM
same,TGI,[7],> 100 µM
same,GI50,[8],5.43 µM
same,TGI,[8],> 100 µM
same,GI50,[9],3.87 µM
same,TGI,[9],> 100 µM
same,GI50,[10],2.04 µM
same,TGI,[10],6.96 µM
same,GI50,[11],3.7 µM
same,TGI,[11],> 100 µM
same,GI50,[12],3.69 µM
same,TGI,[12],> 100 µM
same,GI50,[13],2.17 µM
same,TGI,[13],5.02 µM
same,GI50,[14],1.16 µM
same,TGI,[14],6.44 µM
same,GI50,[15],3.73 µM
same,TGI,[15],> 100 µM
same,GI50,[16],2.3 µM
same,TGI,[16],7.46 µM
same,GI50,[17],7.52 µM
same,TGI,[17],> 100 µM
same,GI50,[18],6.3 µM
same,TGI,[18],> 100 µM
same,GI50,[19],3.12 µM
same,TGI,[19],21.2 µM
same,GI50,[20],5.28 µM
same,TGI,[20],> 100 µM
same,GI50,[21],7.54 µM
same,TGI,[21],> 100 µM
same,GI50,[22],3.09 µM
same,TGI,[22],> 100 µM
same,GI50,[23],6.28 µM
same,TGI,[23],> 100 µM
same,GI50,[24],4.69 µM
same,TGI,[24],> 100 µM
same,GI50,[25],7.35 µM
same,TGI,[25],> 100 µM
same,GI50,[26],4.51 µM
same,TGI,[26],> 100 µM
same,GI50,[27],4.03 µM
